Source: US4680285A, “Treatment of malignant tumors with 2-(β-D-ribofuranosylthiazole-4-carboxamide related compounds” (priority 1985, dated 1987)
Entries after “also recorded” stand apart in the source; their conditions may differ.

Experiments:
malignant tumors = assay: antitumor activity in vivo (general statements); conditions: summary statements
L-1210 lymphoid leukemia = L-1210 lymphoid leukemia in vivo, mean survival, 30-day test (Example 9); set-up: species or system CD2 F1 male mice
Description: For Example 9a and 9b, CD2 F1 male mice were used and challenged with L-1210 lymphoid leukemia. […] The test period was for thirty days. Test results are expressed as T/C as per Example 5.
In Example 9a, 24 control animals were used and six test animals at each drug dose level as is indicated below in table 9a. For both the control group and the drug test group, tumors were induced by IP inoculation of tumor seed cells on day zero followed by initiation of drug treatment on day one. For example 9a, water was used as the drug vehicle and for Examples 9b saline was used as the drug vehicle.
In both the control groups and the drug treated groups in Examples 9a and 9b, the test animals were inoculated on day zero IP with 10^6 seed cells of L-1210 lymphoid leukemia. For Example 9a, drug treatment was started on day one and compound 1 given once daily for nine days. Day five was utilized as the cutoff date for death attributable to toxicity of the drug. […] Efficacy of treatment was determined by comparing mean survival time of drug treated animals with mean survival time of the control animals and is expressed as percentage increase of treated animals/control animals (T/C) as per Example 5.
In this example, the drug treated animals were injected IP with dose levels noted in table 5a below. Six animals were treated at each dose level. No control animals survived beyond day ten with a mean death date of day 9.7.
In this example, drug treated animals were injected IP with the dose level noted in table 5b below. Ten animals were treated at each dose level. No control animals survived beyond day ten with a mean death date of day 9.0.

type 3 rhinovirus = conditions: cited from earlier work
Lewis lung carcinoma = Lewis lung carcinoma (IV inoculated) in vivo, median survival, 60-day test (Example 10); set-up: species or system B6 D2 F1 male mice; conditions: for Treated Group Survival Time (median): assigned 60 at end of test, control 18.4; for Percent Treated Animals/Control Animals: based on assigned 60 days
Description: For example 10, B6 D2 F1 male mice were used and challenged with Lewis lung carcinoma.
In Example 10, forty control animals were used and ten test animals each at dose levels indicated below in Table 6. For both the control group and the drug treated group, tumors were induced by IV injection on day zero followed by initiating of drug treatment on day one. For example 10 water was used as the drug vehicle.
In both the control group and the drug treated group in Example 10, the animals were inoculated on day zero with a homogenate of 10^6 seed cells of Lewis lung carcinoma. For Example 10, drug treatment was started on day one and compound 1 given once daily for nine days. Day five was utilized as the cut-off date for details attributable to toxicity of the drug. […] Efficacy of treatment was determined by comparing median survival time of drug treated animals with median survival time of the control animals and is expressed as percentage increase of treated animals/control animals (T/C) as per Example 5.
The test period was for sixty days and at the end of the sixty day period all animals surviving in the test groups were evaluated as either cured, no-takes, or tumor survivors as per Example 5 above.
In this example, the drug treated animals were injected IP with the dose level noted in table 6 below. Ten animals were treated at each dose level. No control animals survived beyond day 23 with a median death data of day 18.4. […] Because of this fact, the T/C ratio noted in table 6 below is a constant figure based on assigning survival day rate of sixty to the treated animals and a median death date of 18.4 days to the control animals.

virus = conditions: cited from earlier work
[1] = 100 mg/Kg, ten animals, sixty days

## NC(=O)c1csc([C@@H]2O[C@H](CO)[C@@H](O)[C@H]2O)n1 [Compound 1, 2-β-D-Ribofuranosylthiazole-4-Carboxamide]
Malignant tumors
  antitumor activity: effective in vivo antitumor agents
Malignant tumors; listed as 2-β-D-ribofuranosylthiazole-4-carboxamide
  antitumor activity: positive antitumor activity; also recorded: significant antitumor activity in vivo
L-1210 lymphoid leukemia; Ex. 9a, water, 25 mg/Kg IP once daily x9
  Percent Treated Animals/Control Animals: 131%
L-1210 lymphoid leukemia; Ex. 9a, water, 25 mg/Kg IP once daily x9, control 9.7
  Treated Group Survival Time (mean): 12.8 days
L-1210 lymphoid leukemia; Ex. 9a, water, 50 mg/Kg IP once daily x9
  Percent Treated Animals/Control Animals: 136%
L-1210 lymphoid leukemia; Ex. 9a, water, 50 mg/Kg IP once daily x9, control 9.7
  Treated Group Survival Time (mean): 13.2 days
L-1210 lymphoid leukemia; Ex. 9a, water, 100 mg/Kg IP once daily x9
  Percent Treated Animals/Control Animals: 144%
L-1210 lymphoid leukemia; Ex. 9a, water, 100 mg/Kg IP once daily x9, control 9.7
  Treated Group Survival Time (mean): 14.0 days
L-1210 lymphoid leukemia; Ex. 9a, water, 200 mg/Kg IP once daily x9
  Percent Treated Animals/Control Animals: 157%
L-1210 lymphoid leukemia; Ex. 9a, water, 200 mg/Kg IP once daily x9, control 9.7
  Treated Group Survival Time (mean): 15.3 days
L-1210 lymphoid leukemia; Ex. 9a, water, 400 mg/Kg IP once daily x9
  Percent Treated Animals/Control Animals: 192%
L-1210 lymphoid leukemia; Ex. 9a, water, 400 mg/Kg IP once daily x9, control 9.7
  Treated Group Survival Time (mean): 18.7 days
L-1210 lymphoid leukemia; Ex. 9b, saline, 100 mg/Kg IP
  Percent Treated Animals/Control Animals: 183%
L-1210 lymphoid leukemia; Ex. 9b, saline, 100 mg/Kg IP, control 9.0
  Treated Group Survival Time (mean): 16.5 days
L-1210 lymphoid leukemia; Ex. 9b, saline, 200 mg/Kg IP
  Percent Treated Animals/Control Animals: 182%
L-1210 lymphoid leukemia; Ex. 9b, saline, 200 mg/Kg IP, control 9.0
  Treated Group Survival Time (mean): 16.4 days
L-1210 lymphoid leukemia; Ex. 9b, saline, 400 mg/Kg IP
  Percent Treated Animals/Control Animals: 224%
L-1210 lymphoid leukemia; Ex. 9b, saline, 400 mg/Kg IP, control 9.0
  Treated Group Survival Time (mean): 20.2 days
L-1210 lymphoid leukemia; Ex. 9b, saline, 600 mg/Kg IP
  Percent Treated Animals/Control Animals: 230%
L-1210 lymphoid leukemia; Ex. 9b, saline, 600 mg/Kg IP, control 9.0
  Treated Group Survival Time (mean): 20.7 days
L-1210 lymphoid leukemia; Ex. 9b, saline, 800 mg/Kg IP
  Percent Treated Animals/Control Animals: 171%
L-1210 lymphoid leukemia; Ex. 9b, saline, 800 mg/Kg IP, control 9.0
  Treated Group Survival Time (mean): 15.4 days
L-1210 lymphoid leukemia; Example 9
  activity against L-1210 lymphoid leukemia: active against L-1210 lymphoid leukemia
L-1210 lymphoid leukemia; Example 9b, day five cut-off
  mortality attributed to drug toxicity: only one instance
L-1210 lymphoid leukemia; L-1210
  DN 2 criteria of the National Cancer Institute: successfully passed
Type 3 rhinovirus
  in vitro antiviral activity: only moderate
Lewis lung carcinoma; 25 mg/Kg
  animals surviving the sixty day test period: all test animals survived
Lewis lung carcinoma; 25 mg/Kg IP once daily x9
  Treated Group Survival Time (median): 60 days
  Percent Treated Animals/Control Animals: 326%
Lewis lung carcinoma; 50 mg/Kg IP once daily x9
  Treated Group Survival Time (median): 60 days
  Percent Treated Animals/Control Animals: 326%
Lewis lung carcinoma; 50 mg/Kg, ten animals
  day of the one death: 47 days
Lewis lung carcinoma; 50 mg/Kg, ten animals, sixty days
  animals judged as cured: nine cures
Lewis lung carcinoma; 100 mg/Kg IP once daily x9
  Treated Group Survival Time (median): 60 days
  Percent Treated Animals/Control Animals: 326%
Lewis lung carcinoma; 100 mg/Kg, ten animals
  day of the one death: 46 days
Lewis lung carcinoma; [1]
  animals judged as cured: eight cures
  tumor survivors: one tumor survivor
Lewis lung carcinoma; 200 mg/Kg
  animals surviving the sixty day test period: all test animals survived
Lewis lung carcinoma; 200 mg/Kg IP once daily x9
  Treated Group Survival Time (median): 60 days
  Percent Treated Animals/Control Animals: 326%
Lewis lung carcinoma; 200 mg/Kg, ten animals, sixty days
  animals judged as cured: all ten
Lewis lung carcinoma; 400 mg/Kg
  animals surviving the sixty day test period: all test animals survived
Lewis lung carcinoma; 400 mg/Kg IP once daily x9
  Treated Group Survival Time (median): 60 days
  Percent Treated Animals/Control Animals: 326%
Lewis lung carcinoma; 400 mg/Kg, ten animals, sixty days
  animals judged as cured: all ten
Lewis lung carcinoma; 25-400 mg/Kg, day five cut-off
  mortality attributable to drug toxicity: no mortality attributable to drug toxicity
Lewis lung carcinoma; Example 10
  activity against Lewis lung carcinoma: effective antitumor agent; also recorded: active antitumor agent; also recorded: outstanding activity
  median survival time vs control: dramatically extended
Lewis lung carcinoma; Lewis lung carcinoma
  DN 2 criteria of the National Cancer Institute: successfully passed
Lewis lung carcinoma; all but one dose level
  cures at cessation of the test period: at least 80%
Lewis lung carcinoma; at two dose levels (200 and 400 mg/Kg)
  cures at cessation of the test period: 100%
virus; in vivo antiviral tests
  number of deaths of test animals vs placebo control animals: equal to or exceeded the number of deaths of the placebo control animals
virus; in vivo
  in vivo antiviral activity: no useful in vivo antiviral activity; also recorded: negative
